Experimental data published in patent US6914064B2, “1,4-Disubstituted piperazine derivatives useful as uro-selective α1-adrenoceptor blockers” (Ranbaxy Laboratories Limited, priority 2000, dated 2005).

Assays:
α1A adrenoceptor = biological target: T1, α1A adrenoceptor (Rattus norvegicus, UniProt P43140); assay: Receptor binding assay, displacement of [3H]prazosin, rat submaxillary membranes; details: for Ki: [3H]prazosin displacement, rat submaxillary membranes, read-out: α1A (Rat submaxillary) Ki; for Selectivity α1B/α1A: ratio of Ki α1B (rat liver) / α1A (rat submaxillary)
T1 construct: from tissue; host or cells: rat submaxillary gland membranes
T1 sequence (P43140 1-466): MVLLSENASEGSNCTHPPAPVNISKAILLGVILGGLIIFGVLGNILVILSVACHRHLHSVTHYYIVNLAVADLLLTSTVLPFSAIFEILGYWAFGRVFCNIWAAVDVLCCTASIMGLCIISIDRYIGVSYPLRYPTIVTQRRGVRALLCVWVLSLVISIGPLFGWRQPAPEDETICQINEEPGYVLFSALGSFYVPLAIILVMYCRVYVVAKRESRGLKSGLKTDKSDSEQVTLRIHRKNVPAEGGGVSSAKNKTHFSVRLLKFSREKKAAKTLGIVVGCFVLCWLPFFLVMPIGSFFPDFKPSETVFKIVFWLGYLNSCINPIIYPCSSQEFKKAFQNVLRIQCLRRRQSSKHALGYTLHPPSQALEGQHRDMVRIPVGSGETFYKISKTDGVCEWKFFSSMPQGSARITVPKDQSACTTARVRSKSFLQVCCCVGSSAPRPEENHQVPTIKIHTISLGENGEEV
Description: Receptor binding assays were performed using native α-adrenoceptors.
(§1) Submaxillary glands were isolated immediately after sacrifice. The liver was perfused with buffer (Tris HCl 50 mM, NaCl 100 mM, 10 mM EDTA pH 7.4). The tissues were homogenised in 10 volumes of buffer (Tris HCl 50 mM, NaCl 100 mM, EDTA 10 mM, pH 7.4). The homogenate was filtered through two layers of wet gauze and filtrate was centrifuged at 500 g for 10 min. The supernatant was subsequently centrifuged at 40,000 g for 45 min. The pellet thus obtained was resuspended in the same volume of assay buffer (Tris HCl 50 mM, EDTA 5 mM, pH 7.4) and were stored at −70° C. until the time of assay.
(§2) The membrane homogenates (150-250 μg protein) were incubated in 250 μl of assay buffer (Tris HCl 50 mM, EDTA 5 mM, pH 7.4) at 24-25° C. for 1 h. Non-specific binding was determined in the presence of 300 nM prazosin. The incubation was terminated by vacuum filtration over GF/B fibre filters. The filters were then washed with ice cold 50 mM Tris HCl buffer (pH 7.4). The filtermats were dried and bound radioactivity retained on filters was counted.The IC50 & Kd were estimated by using the non-linear curve fitting program using G Pad Prism software.

α1B adrenoceptor = biological target: T2, α1B adrenoceptor (Rattus norvegicus, UniProt P15823); assay: Receptor binding assay, displacement of [3H]prazosin, rat liver membranes; details: [3H]prazosin displacement, rat liver membranes; read-out: α1B (Rat liver) Ki
T2 construct: from tissue; host or cells: rat liver membranes
T2 sequence (P15823 1-515): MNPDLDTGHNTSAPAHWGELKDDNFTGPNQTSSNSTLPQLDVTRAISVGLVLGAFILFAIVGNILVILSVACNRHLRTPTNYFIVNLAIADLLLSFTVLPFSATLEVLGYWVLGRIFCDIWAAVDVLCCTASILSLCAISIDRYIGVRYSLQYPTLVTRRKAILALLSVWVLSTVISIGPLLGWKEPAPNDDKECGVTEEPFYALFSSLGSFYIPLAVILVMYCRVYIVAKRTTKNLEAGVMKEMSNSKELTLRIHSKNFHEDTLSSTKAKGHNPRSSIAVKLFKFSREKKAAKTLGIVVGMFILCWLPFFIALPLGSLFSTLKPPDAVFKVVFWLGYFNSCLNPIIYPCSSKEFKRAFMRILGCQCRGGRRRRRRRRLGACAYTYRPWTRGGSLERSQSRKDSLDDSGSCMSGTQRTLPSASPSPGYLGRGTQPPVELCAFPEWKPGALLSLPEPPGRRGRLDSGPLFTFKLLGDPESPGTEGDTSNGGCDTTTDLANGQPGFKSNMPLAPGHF
Description: Receptor binding assays were performed using native α-adrenoceptors. The affinity of different compounds for α1A and α1B adrenoceptor subtypes was evaluated by studying their ability to displace specific [^3H]prazosin binding from the membranes of rat submaxillary and liver respectively (Michel et al, Br J Pharmacol, 98, 883-889 (1989)). The binding assays were performed according to U'Prichard et al. (Eur J Pharmacol, 50:87-89 (1978)) with minor modifications.
as §1
as §2, with “software. The value of inhibition constant Ki was calculated from competitive binding studies by using Cheng & Prusoff equation (Cheng & Prusoff, Biochem Pharmacol, 1973,22: 3099-3108), Ki=IC50/(1+L/Kd) where L is the concentration of [^3H]prazosin used in the particular experiment (Table I).” for “software.”

[1] = biological target: T3, α1A adrenoceptor (prostate) (Rattus norvegicus, UniProt P43140); assay: In vitro functional study, antagonism of phenylepinephrine-induced contraction of prostate; assay type: biochemical; details: for Kb: prostate, phenylepinephrine, tested compound at 0.1, 1 and 10 mM, read-out: α Adrenoceptor Subtype (pKB) α1A (converted)
T3 construct: from tissue; host or cells: isolated prostate tissue
T3 sequence (P43140 1-466): T1 sequence (P43140 1-466)
Description: (§3) In order to study selectivity of action of these compounds towards different α-adrenoceptor subtypes, the ability of these compounds to antagonise α1-adrenoceptor agonist induced contractile response on aorta (α1Dprostate (α1A and spleen (α1B was studied. Aorta and spleen tissues were isolated from urethane anaesthetised (1.5 gm/kg) male wistar rats. Isolated tissues were mounted in organ bath containing Krebs Henseleit buffer of following composition (mM): NaCl 118; KCl 4.7; CaCl2 2.5; MgSO4. 7H2O 1.2; NaHCO3 25; KH2PO41.2; glucose 11.5. Buffer was maintained at 37° C. and aereated with a mixture of 95% O2 and 5% CO2. A resting tension of 2 g (aorta) or 1 g (spleen and prostate)was applied to tissues. Contractile response was monitored using a force displacement transducer and recorded on chart recorders. Tissues were allowed to equilibrate for 2 hours. At the end of equilibration period, concentration response curves to norepinephrine (aorta) and phenylepinephrine (spleen and prostate) were obtained in absence and presence of tested compound (at concentration of 0.1,1 and 10 mM). Antagonist affinity was calculated and expressed as pKB vales in Table II.

[2] = biological target: T4, α1B adrenoceptor (spleen) (Rattus norvegicus, UniProt P15823); assay: In vitro functional study, antagonism of phenylepinephrine-induced contraction of spleen; assay type: biochemical; details: tested compound at 0.1, 1 and 10 mM, read-out: α Adrenoceptor Subtype (pKB) α1B (converted)
T4 construct: Isolated tissues were mounted in organ bath containing Krebs Henseleit buffer; from tissue; host or cells: isolated spleen of male wistar rats
T4 sequence (P15823 1-515): T2 sequence (P15823 1-515)
Description: as §3

α1D adrenoceptor (aorta) = biological target: T5, α1D adrenoceptor (aorta) (Rattus norvegicus, UniProt P23944); assay: In vitro functional study, antagonism of norepinephrine-induced contraction of aorta; assay type: biochemical; details: tested compound at 0.1, 1 and 10 mM, read-out: α Adrenoceptor Subtype (pKB) α1D (converted)
T5 construct: Isolated tissues were mounted in organ bath containing Krebs Henseleit buffer; from tissue; host or cells: isolated aorta of male wistar rats
T5 sequence (P23944 1-561): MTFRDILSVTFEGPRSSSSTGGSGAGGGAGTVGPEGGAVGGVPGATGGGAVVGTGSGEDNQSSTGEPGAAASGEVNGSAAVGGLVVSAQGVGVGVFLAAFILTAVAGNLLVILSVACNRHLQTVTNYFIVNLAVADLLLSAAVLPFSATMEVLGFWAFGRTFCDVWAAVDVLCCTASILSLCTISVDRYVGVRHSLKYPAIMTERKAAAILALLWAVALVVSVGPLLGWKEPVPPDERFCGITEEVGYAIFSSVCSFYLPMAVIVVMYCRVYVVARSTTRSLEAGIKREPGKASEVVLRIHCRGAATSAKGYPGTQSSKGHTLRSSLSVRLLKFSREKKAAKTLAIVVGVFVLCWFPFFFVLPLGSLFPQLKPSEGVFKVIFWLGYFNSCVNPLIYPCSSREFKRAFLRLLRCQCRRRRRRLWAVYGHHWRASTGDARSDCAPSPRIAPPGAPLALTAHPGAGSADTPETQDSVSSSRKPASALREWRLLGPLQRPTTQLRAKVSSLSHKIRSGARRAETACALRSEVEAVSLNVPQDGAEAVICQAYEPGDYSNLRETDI
Description: as §3

[3] = functional assays, from pKB values

Ki (α1A adrenoceptor) [nM]	Selectivity α1B/α1A (α1A adrenoceptor)	Ki (α1B adrenoceptor) [nM]	Selectivity α1A/α1B [1, 3]	Selectivity α1A/α1D [1, 3]	Kb [1] [nM]	Kb [2] [nM]	Kb (α1D adrenoceptor (aorta)) [nM]	melting point [°C]	Structure (SMILES)
0.3	207	62	23	3.6	0.676	15.8	2.51	232.5 to 233.5	CCc1ccccc1N1CCN(CCCN2C(=O)C3CC=CCC3C2=O)CC1.Cl (centres unmarked) [Compound 09, 2-[3-{4-(2-Ethylphenyl)piperazin-1-yl}propyl]-3a,4,7,7a-tetrahydro-1H-isoindole-1,3(2H)-dione hydrochloride]
0.34	85	29	3.4	–	1.17	3.98	0.891	163 to 165	COc1ccc(F)cc1N1CCN(CCCN2C(=O)C3CC=CCC3C2=O)CC1.Cl (centres unmarked) [Compound 08, 2-[3-{4-(2-Methoxy-5-fluorophenyl)piperazin-1-yl}propyl]-3a,4,7,7a-tetrahydro-1H-isoindole-1,3(2H)-dione hydrochloride]
